Source: patent US9695155B2, “Herbicidal substituted pyrimidinyloxy benzene compounds” (E. I. DU PONT DE NEMOURS AND COMPANY, priority 2013, dated 2017)

Columns and labels:
barnyardgrass [1] = assay: Test A preemergence; assay type: in vivo, Echinochloa crus-galli; conditions: 1000 g ai/ha, 0 to 100 scale, 0 no effect, 100 complete control, approx. 10 days
How it was run: (§1)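 Greenhouse pot test, loam/sand soil. Formulation: non-phytotoxic solvent mix plus surfactant. Pre: directed spray onto soil after sowing. Post: plants at 1–2 leaf, 2–10 cm. Rated visually vs untreated controls at ~10 d, 0 (no effect) to 100 (complete control).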

kochia [2] = assay: Test A preemergence; assay type: in vivo, Kochia scoparia; conditions: 1000 g ai/ha, 0 to 100 scale, 0 no effect, 100 complete control, approx. 10 days
From the text: (§2) Seeds of plant species selected from barnyardgrass (Echinochloa crus-galli), kochia (Kochia scoparia), ragweed (common ragweed, Ambrosia elatior), Italian ryegrass (Lolium multiflorum), large (Lg) crabgrass (Digitaria sanguinalis), giant foxtail (Setaria faberii), morningglory (Ipomoea spp.), pigweed (Amaranthus retroflexus), velvetleaf (Abutilon theophrasti), wheat (Triticum aestivum), and corn (Zea mays) were planted into a blend of loam soil and sand and treated preemergence with a directed soil spray using test chemicals formulated in a non-phytotoxic solvent mixture which included a surfactant.
(§3) At the same time, plants selected from these crop and weed species and also blackgrass (Alopecurus myosuroides), and galium (catchweed bedstraw, Galium aparine) were planted in pots containing the same blend of loam soil and sand and treated with postemergence applications of test chemicals formulated in the same manner. Plants ranged in height from 2 to 10 cm and were in the one- to two-leaf stage for the postemergence treatment. Treated plants and untreated controls were maintained in a greenhouse for approximately 10 days, after which time all treated plants were compared to untreated controls and visually evaluated for injury. Plant response ratings, summarized in Table A, are based on a 0 to 100 scale where 0 is no effect and 100 is complete control. A dash (-) response means no test result.

ragweed [3] = assay: Test A preemergence; assay type: in vivo, Ambrosia elatior; conditions: 1000 g ai/ha, 0 to 100 scale, 0 no effect, 100 complete control, approx. 10 days
From the text: as §2, §3

Italian ryegrass [4] = assay: Test A preemergence; assay type: in vivo, Lolium multiflorum; conditions: 1000 g ai/ha, 0 to 100 scale, 0 no effect, 100 complete control, approx. 10 days
From the text: as §2, §3

giant foxtail [5] = assay: Test A preemergence; assay type: in vivo, Setaria faberii; conditions: 1000 g ai/ha, 0 to 100 scale, 0 no effect, 100 complete control, approx. 10 days
How it was run: as §1

pigweed [6] = assay: Test A preemergence; assay type: in vivo, Amaranthus retroflexus; conditions: 1000 g ai/ha, 0 to 100 scale, 0 no effect, 100 complete control, approx. 10 days
How it was run: as §1

barnyardgrass [7] = assay: Test A postemergence; assay type: in vivo, Echinochloa crus-galli; conditions: 1000 g ai/ha, 0 to 100 scale, 0 no effect, 100 complete control
How it was run: as §1

kochia [8] = assay: Test A postemergence; assay type: in vivo, Kochia scoparia; conditions: 1000 g ai/ha, 0 to 100 scale, 0 no effect, 100 complete control
From the text: as §2, §3

ragweed [9] = assay: Test A postemergence; assay type: in vivo, Ambrosia elatior; conditions: 1000 g ai/ha, 0 to 100 scale, 0 no effect, 100 complete control
From the text: as §2, §3

Italian ryegrass [10] = assay: Test A postemergence; assay type: in vivo, Lolium multiflorum; conditions: 1000 g ai/ha, 0 to 100 scale, 0 no effect, 100 complete control
From the text: as §2, §3

giant foxtail [11] = assay: Test A postemergence; assay type: in vivo, Setaria faberii; conditions: 1000 g ai/ha, 0 to 100 scale, 0 no effect, 100 complete control
How it was run: as §1

pigweed [12] = assay: Test A postemergence; assay type: in vivo, Amaranthus retroflexus; conditions: 1000 g ai/ha, 0 to 100 scale, 0 no effect, 100 complete control
How it was run: as §1

wheat = assay: Test A postemergence; assay type: in vivo, Triticum aestivum; conditions: 1000 g ai/ha, 0 to 100 scale, 0 no effect, 100 complete control
How it was run: as §1

corn = assay: Test A postemergence; assay type: in vivo, Zea mays; conditions: 1000 g ai/ha, 0 to 100 scale, 0 no effect, 100 complete control
How it was run: as §1

blackgrass = assay: Test A postemergence; assay type: in vivo, Alopecurus myosuroides; conditions: 1000 g ai/ha, 0 to 100 scale, 0 no effect, 100 complete control
From the text: as §2, §3

galium = assay: Test A postemergence; assay type: in vivo, Galium aparine; conditions: 1000 g ai/ha, 0 to 100 scale, 0 no effect, 100 complete control
From the text: as §2, §3

| Structure (SMILES) | Barnyardgrass plant response rating (barnyardgrass [1]) | Kochia plant response rating (kochia [2]) | Ragweed plant response rating (ragweed [3]) | Ryegrass, Italian plant response rating (Italian ryegrass [4]) | Foxtail, Giant plant response rating (giant foxtail [5]) | Pigweed plant response rating (pigweed [6]) | Plant response rating, Barnyardgrass (barnyardgrass [7]) | Plant response rating, Kochia (kochia [8]) | Plant response rating, Ragweed (ragweed [9]) | Plant response rating, Ryegrass, Italian (Italian ryegrass [10]) | Plant response rating, Foxtail, Giant (giant foxtail [11]) | Plant response rating, Pigweed (pigweed [12]) | Plant response rating, Wheat (wheat) | Plant response rating, Corn (corn) | Plant response rating, Blackgrass (blackgrass) | Plant response rating, Galium (galium) |
| --- | --- | --- | --- | --- | --- | --- | --- | --- | --- | --- | --- | --- | --- | --- | --- | --- |
| CCNC(=O)c1cccc(Oc2ncc(Cl)cn2)c1-n1cc(C(F)(F)F)cn1 [Compound 257] | 50 | 70 | 70 | 20 | 70 | 80 | 10 | 60 | 30 | 0 | 10 | 40 | 0 | 0 | 10 | 30 |
| O=Cc1cn(-c2c(F)cccc2Oc2ncc(Cl)cn2)nn1 [Compound 139] | 0 | 0 | 0 | 0 | 0 | 50 | 0 | 0 | 0 | 0 | 0 | 30 | 0 | 20 | 0 | 10 |
